{"source": "patent US20250084039A1", "about": "“4-SUBSTITUTED AMINOISOQUINOLINE DERIVATIVES” (Purdue Research Foundation, priority 2016, published 2025)", "key": {"EGFR": {"target": "EGFR (Homo sapiens (Human), UniProt P00533)", "sequence (P00533 25-1210)": "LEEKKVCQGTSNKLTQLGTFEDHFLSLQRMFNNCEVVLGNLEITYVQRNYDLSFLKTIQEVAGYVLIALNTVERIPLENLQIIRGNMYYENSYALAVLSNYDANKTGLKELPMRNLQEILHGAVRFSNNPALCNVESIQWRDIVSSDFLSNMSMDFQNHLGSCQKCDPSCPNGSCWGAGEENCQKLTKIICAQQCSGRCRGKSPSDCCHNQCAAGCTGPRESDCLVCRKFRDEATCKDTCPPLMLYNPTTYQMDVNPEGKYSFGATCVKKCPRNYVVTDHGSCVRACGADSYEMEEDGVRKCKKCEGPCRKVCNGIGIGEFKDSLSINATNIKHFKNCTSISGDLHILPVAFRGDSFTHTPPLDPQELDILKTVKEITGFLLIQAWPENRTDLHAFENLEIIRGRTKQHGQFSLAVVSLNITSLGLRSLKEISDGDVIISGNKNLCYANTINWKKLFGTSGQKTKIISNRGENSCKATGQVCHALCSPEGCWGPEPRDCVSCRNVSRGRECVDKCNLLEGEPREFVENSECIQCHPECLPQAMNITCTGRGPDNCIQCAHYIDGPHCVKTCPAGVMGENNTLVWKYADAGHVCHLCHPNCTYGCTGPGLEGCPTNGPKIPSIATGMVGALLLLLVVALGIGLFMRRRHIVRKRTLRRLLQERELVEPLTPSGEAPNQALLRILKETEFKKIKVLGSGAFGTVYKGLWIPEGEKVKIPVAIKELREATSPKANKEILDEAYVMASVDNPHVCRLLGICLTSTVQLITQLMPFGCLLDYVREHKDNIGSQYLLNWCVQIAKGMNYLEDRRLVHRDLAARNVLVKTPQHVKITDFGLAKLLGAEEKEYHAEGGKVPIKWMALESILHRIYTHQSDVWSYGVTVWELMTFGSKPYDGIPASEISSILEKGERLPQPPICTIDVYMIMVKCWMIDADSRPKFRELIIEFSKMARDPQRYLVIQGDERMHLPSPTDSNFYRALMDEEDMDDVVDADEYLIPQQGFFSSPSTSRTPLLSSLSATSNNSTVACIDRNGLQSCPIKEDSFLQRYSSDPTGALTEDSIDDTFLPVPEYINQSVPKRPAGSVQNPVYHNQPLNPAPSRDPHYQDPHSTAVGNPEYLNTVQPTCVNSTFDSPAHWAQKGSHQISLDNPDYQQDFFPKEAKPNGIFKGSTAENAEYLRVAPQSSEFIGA", "test": "Reaction Biology HotSpot kinase assay", "assay_type": "biochemical", "conditions": "500 nM compound", "in_short": "(§1)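 Phosphotransfer from [γ-33P]ATP was quantified after filter binding on P81 paper. Conditions: 20 mM HEPES pH 7.5, 10 mM MgCl2, 0.1 mM Na3VO4, 2 mM DTT, 0.02 mg/mL BSA; ATP 100 μM final; 2 h at room temperature. Compound was dosed at 500 nM.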"}, "FLT3": {"target": "FLT3 (Homo sapiens (Human), UniProt P36888)", "sequence (P36888 27-993)": "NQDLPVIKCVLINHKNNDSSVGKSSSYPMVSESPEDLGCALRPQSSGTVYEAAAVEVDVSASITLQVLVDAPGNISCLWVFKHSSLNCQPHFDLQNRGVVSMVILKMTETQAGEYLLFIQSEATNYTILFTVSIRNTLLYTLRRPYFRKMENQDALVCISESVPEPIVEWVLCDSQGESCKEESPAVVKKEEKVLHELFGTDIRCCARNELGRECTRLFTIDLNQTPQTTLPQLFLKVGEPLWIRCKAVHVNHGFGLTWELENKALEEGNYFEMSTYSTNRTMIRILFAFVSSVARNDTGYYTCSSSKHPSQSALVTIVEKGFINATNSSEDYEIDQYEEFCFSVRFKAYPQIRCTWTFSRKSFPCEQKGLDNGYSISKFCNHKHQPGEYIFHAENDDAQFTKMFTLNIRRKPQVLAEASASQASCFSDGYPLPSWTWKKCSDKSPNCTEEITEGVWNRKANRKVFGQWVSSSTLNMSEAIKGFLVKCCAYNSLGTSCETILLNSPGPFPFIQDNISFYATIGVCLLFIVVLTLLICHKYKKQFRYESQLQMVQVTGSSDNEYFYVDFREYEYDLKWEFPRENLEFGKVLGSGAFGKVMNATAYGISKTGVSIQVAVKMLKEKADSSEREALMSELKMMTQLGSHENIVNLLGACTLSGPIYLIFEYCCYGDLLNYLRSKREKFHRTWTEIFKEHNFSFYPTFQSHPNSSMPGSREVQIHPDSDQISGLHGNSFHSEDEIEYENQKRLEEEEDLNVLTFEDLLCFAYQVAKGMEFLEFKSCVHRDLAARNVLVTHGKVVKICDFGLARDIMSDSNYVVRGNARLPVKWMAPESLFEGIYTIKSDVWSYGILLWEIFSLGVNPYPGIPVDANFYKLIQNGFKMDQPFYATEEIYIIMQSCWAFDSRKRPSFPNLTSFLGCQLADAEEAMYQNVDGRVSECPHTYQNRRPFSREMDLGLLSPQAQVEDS", "test": "Reaction Biology HotSpot kinase assay", "assay_type": "biochemical", "in_short": "(§2)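 HotSpot 33P transfer format. Enzyme, substrate and 500 nM test compound sit together for 20 min, then labelled and unlabelled ATP totalling 100 μM are added and phosphorylation proceeds for 2 h at room temperature. Products are captured on P81 cellulose paper, and activity is expressed relative to DMSO.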"}, "c-Met": {"target": "c-Met (Homo sapiens (Human), UniProt P08581)", "test": "Reaction Biology HotSpot kinase assay", "assay_type": "biochemical", "conditions": "500 nM compound", "in_short": "as §1"}, "PDGFRa": {"target": "PDGFRa (Homo sapiens (Human), UniProt P16234)", "test": "Reaction Biology HotSpot kinase assay", "assay_type": "biochemical", "conditions": "500 nM compound", "in_short": "as §1"}, "EPHA5": {"target": "EPHA5 (Homo sapiens (Human), UniProt P54756)", "test": "Reaction Biology HotSpot kinase assay", "assay_type": "biochemical", "conditions": "500 nM compound", "in_short": "as §1"}, "KDR/VEGFR2": {"target": "KDR/VEGFR2 (Homo sapiens (Human), UniProt P35968)", "test": "Reaction Biology HotSpot kinase assay", "assay_type": "biochemical", "conditions": "500 nM compound", "in_short": "as §1"}, "ALK": {"target": "ALK (Homo sapiens (Human), UniProt Q9UM73)", "test": "Reaction Biology HotSpot kinase assay", "assay_type": "biochemical", "conditions": "500 nM compound", "in_short": "as §1"}, "EPHB2": {"target": "EPHB2 (Homo sapiens (Human), UniProt P29323)", "sequence (P29323 19-1055)": "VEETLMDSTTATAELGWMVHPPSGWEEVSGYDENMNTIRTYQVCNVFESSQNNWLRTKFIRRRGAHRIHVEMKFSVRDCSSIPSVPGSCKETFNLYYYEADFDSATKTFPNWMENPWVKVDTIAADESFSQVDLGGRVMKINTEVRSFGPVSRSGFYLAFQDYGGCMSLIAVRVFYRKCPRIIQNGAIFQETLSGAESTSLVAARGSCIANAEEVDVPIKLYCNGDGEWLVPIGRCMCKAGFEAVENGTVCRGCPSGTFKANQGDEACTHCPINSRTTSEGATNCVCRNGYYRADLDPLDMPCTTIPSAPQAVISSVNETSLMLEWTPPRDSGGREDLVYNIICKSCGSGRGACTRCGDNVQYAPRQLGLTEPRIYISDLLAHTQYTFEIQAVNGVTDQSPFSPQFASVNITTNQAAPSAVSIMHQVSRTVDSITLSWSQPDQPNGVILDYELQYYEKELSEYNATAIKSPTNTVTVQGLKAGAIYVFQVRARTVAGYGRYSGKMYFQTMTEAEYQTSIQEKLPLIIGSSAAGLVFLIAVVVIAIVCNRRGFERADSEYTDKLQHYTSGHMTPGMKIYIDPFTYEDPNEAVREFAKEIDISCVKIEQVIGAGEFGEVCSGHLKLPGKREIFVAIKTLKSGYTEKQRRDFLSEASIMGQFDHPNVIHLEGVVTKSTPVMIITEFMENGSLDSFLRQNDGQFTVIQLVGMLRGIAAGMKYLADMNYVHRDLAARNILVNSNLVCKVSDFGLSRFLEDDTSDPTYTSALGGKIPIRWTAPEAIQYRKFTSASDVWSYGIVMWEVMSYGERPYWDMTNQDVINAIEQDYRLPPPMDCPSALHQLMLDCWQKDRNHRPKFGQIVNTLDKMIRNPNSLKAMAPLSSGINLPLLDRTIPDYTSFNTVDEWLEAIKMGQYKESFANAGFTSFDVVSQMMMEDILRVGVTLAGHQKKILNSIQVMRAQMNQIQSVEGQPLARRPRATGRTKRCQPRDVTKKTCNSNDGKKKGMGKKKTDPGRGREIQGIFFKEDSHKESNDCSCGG", "test": "Reaction Biology HotSpot kinase assay", "assay_type": "biochemical", "conditions": "500 nM compound", "in_short": "as §1"}, "FGR": {"target": "FGR (Homo sapiens (Human), UniProt P09769)", "test": "Reaction Biology HotSpot kinase assay", "assay_type": "biochemical", "conditions": "500 nM compound", "in_short": "as §1"}, "TRKB": {"target": "TRKB (Homo sapiens (Human), UniProt Q16620)", "test": "Reaction Biology HotSpot kinase assay", "assay_type": "biochemical", "conditions": "500 nM compound", "in_short": "as §1"}, "AXL": {"target": "AXL (Homo sapiens (Human), UniProt P30530)", "test": "Reaction Biology HotSpot kinase assay", "assay_type": "biochemical", "conditions": "500 nM compound", "in_short": "(§3)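 Compounds were screened at one concentration, 500 nM, in a radiometric kinase reaction. After a 20-minute preincubation with enzyme and substrate in pH 7.5 HEPES buffer (1% DMSO), the mixture received 100 μM ATP containing [γ-33P]ATP and was left 2 h at room temperature.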"}, "TIE2/TEK": {"target": "TIE2/TEK (Homo sapiens (Human), UniProt Q02763)", "test": "Reaction Biology HotSpot kinase assay", "assay_type": "biochemical", "conditions": "500 nM compound", "in_short": "as §1"}, "BRAF": {"target": "BRAF (Homo sapiens (Human), UniProt P15056)", "sequence (P15056 whole entry)": "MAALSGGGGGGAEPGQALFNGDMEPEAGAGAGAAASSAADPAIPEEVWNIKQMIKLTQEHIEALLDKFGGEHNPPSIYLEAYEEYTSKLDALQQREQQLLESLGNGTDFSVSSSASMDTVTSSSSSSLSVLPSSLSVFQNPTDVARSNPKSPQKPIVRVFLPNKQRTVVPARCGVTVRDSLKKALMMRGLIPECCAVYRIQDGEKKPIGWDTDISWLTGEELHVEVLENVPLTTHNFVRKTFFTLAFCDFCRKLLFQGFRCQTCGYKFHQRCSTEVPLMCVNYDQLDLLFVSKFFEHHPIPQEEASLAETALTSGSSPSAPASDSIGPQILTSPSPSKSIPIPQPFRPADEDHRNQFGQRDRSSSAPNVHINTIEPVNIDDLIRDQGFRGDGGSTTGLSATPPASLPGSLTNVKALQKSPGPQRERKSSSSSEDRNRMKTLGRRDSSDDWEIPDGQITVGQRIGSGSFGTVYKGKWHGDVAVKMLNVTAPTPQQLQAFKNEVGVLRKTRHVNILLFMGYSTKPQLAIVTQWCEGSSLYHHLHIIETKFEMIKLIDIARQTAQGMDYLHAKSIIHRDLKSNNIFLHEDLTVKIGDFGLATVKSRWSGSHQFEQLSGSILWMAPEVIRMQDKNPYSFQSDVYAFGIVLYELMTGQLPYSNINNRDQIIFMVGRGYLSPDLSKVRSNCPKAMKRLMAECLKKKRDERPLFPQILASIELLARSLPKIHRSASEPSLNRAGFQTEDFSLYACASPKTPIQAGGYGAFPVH", "test": "Reaction Biology HotSpot kinase assay", "assay_type": "biochemical", "conditions": "500 nM compound", "in_short": "as §3"}, "ROS/ROS1": {"target": "ROS/ROS1 (Homo sapiens (Human), UniProt P08922)", "test": "Reaction Biology HotSpot kinase assay", "assay_type": "biochemical", "conditions": "500 nM compound", "in_short": "as §1"}, "BTK": {"target": "BTK (Homo sapiens (Human), UniProt Q06187)", "sequence (Q06187 whole entry)": "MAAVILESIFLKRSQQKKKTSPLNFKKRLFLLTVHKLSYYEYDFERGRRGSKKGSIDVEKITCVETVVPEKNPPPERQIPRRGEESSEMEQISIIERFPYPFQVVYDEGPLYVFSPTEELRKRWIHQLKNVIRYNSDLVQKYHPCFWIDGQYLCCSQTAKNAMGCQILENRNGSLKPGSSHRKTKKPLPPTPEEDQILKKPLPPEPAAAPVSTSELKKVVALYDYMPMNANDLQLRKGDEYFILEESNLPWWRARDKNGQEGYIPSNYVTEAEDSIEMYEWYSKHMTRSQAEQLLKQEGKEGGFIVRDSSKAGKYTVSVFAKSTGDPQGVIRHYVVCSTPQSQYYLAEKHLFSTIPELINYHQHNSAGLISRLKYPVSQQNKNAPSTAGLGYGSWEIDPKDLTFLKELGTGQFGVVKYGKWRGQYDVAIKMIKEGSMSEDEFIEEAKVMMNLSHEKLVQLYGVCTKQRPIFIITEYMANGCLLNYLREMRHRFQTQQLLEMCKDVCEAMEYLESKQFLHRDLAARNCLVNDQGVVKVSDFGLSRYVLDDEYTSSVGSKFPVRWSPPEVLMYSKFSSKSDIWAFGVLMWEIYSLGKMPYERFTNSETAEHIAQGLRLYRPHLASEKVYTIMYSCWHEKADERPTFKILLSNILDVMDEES", "test": "Reaction Biology HotSpot kinase assay", "assay_type": "biochemical", "conditions": "500 nM compound", "in_short": "as §1"}, "FLT1/VEGFR1": {"target": "FLT1/VEGFR1 (Homo sapiens (Human), UniProt P17948)", "test": "Reaction Biology HotSpot kinase assay", "assay_type": "biochemical", "conditions": "500 nM compound", "in_short": "as §1"}, "ERBB2/HER2": {"target": "ERBB2/HER2 (Homo sapiens (Human), UniProt P04626)", "test": "Reaction Biology HotSpot kinase assay", "assay_type": "biochemical", "conditions": "500 nM compound", "in_short": "as §1"}, "FLT4/VEGFR3": {"target": "FLT4/VEGFR3 (Homo sapiens (Human), UniProt P35916)", "test": "Reaction Biology HotSpot kinase assay", "assay_type": "biochemical", "conditions": "500 nM compound", "in_short": "as §1"}, "YES/YES1": {"target": "YES/YES1 (Homo sapiens (Human), UniProt P07947)", "test": "Reaction Biology HotSpot kinase assay", "assay_type": "biochemical", "conditions": "500 nM compound", "in_short": "as §1"}, "c-MER": {"target": "c-MER (Homo sapiens (Human), UniProt Q12866)", "test": "Reaction Biology HotSpot kinase assay", "assay_type": "biochemical", "conditions": "500 nM compound", "in_short": "as §1"}, "PKCa": {"target": "PKCa (Homo sapiens (Human), UniProt P17252)", "test": "Reaction Biology HotSpot kinase assay", "assay_type": "biochemical", "conditions": "500 nM compound", "in_short": "as §1"}, "AKT1": {"target": "AKT1 (Homo sapiens (Human), UniProt P31749)", "sequence (P31749 whole entry)": "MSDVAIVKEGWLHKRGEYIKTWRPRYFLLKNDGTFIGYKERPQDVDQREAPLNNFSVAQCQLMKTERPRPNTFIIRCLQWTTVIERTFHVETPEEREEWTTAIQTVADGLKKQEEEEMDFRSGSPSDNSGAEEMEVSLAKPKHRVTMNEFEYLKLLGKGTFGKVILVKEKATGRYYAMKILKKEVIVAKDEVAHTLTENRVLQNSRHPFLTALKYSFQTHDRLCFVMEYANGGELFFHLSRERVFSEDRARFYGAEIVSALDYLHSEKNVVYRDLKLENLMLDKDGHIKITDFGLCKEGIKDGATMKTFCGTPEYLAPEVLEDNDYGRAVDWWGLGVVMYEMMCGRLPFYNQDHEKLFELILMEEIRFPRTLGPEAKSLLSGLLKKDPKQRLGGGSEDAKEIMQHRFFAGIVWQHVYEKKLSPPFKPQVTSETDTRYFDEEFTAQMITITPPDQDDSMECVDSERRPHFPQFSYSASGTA", "test": "Reaction Biology HotSpot kinase assay", "assay_type": "biochemical", "conditions": "500 nM compound", "in_short": "as §2"}, "FGFR1": {"target": "FGFR1 (Homo sapiens (Human), UniProt P11362)", "test": "Reaction Biology HotSpot kinase assay", "assay_type": "biochemical", "conditions": "500 nM compound", "in_short": "as §2"}, "MOLM14": {"tested_on": "MOLM14", "test": "IC50 determination (proliferation assay, CellTiter-Blue)", "assay_type": "cell-based", "in_short": "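MOLM14 and MV4-11 cells seeded about 18 h before compound addition (DMSO-diluted), then 72 h exposure.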"}}, "note": "Where two headings read alike, the source gives them in different places.", "data": [{"smiles": "CN(C)CC(O)CNC(=O)c1ccc(C#Cc2c(N)ncc3ccc(Cl)cc23)cc1", "note": "(stereo not shown) [HSM1702]", "values": [{"measurement": "Percentage kinase inhibition EGFR", "setting": "EGFR", "value": 0, "unit": "%"}, {"measurement": "% inhibition of FLT3 activity", "setting": "FLT3; 500 nM compound", "value": 66, "unit": "%"}, {"measurement": "Percentage kinase inhibition c-Met", "setting": "c-Met", "value": 4, "unit": "%"}, {"measurement": "Percentage kinase inhibition PDGFRa", "setting": "PDGFRa", "value": 48, "unit": "%"}, {"measurement": "Percentage kinase inhibition EPHA5", "setting": "EPHA5", "value": 4, "unit": "%"}, {"measurement": "Percentage kinase inhibition KDR/VEGFR2", "setting": "KDR/VEGFR2", "value": 9, "unit": "%"}, {"measurement": "Percentage kinase inhibition ALK", "setting": "ALK", "value": 7, "unit": "%"}, {"measurement": "Percentage kinase inhibition EPHB2", "setting": "EPHB2", "value": 5, "unit": "%"}, {"measurement": "Percentage kinase inhibition FGR", "setting": "FGR", "value": 6, "unit": "%"}, {"measurement": "Percentage kinase inhibition TRKB", "setting": "TRKB", "value": 40, "unit": "%"}, {"measurement": "Percentage kinase inhibition AXL", "setting": "AXL", "value": 0, "unit": "%"}, {"measurement": "Percentage kinase inhibition TIE2/TEK", "setting": "TIE2/TEK", "value": 8, "unit": "%"}, {"measurement": "Percentage kinase inhibition BRAF", "setting": "BRAF", "value": 3, "unit": "%"}, {"measurement": "Percentage kinase inhibition ROS/ROS1", "setting": "ROS/ROS1", "value": 15, "unit": "%"}, {"measurement": "Percentage kinase inhibition BTK", "setting": "BTK", "value": 5, "unit": "%"}, {"measurement": "Percentage kinase inhibition FLT1/VEGFR1", "setting": "FLT1/VEGFR1", "value": 0, "unit": "%"}, {"measurement": "Percentage kinase inhibition ERBB2/HER2", "setting": "ERBB2/HER2", "value": 0, "unit": "%"}, {"measurement": "Percentage kinase inhibition FLT4/VEGFR3", "setting": "FLT4/VEGFR3", "value": 10, "unit": "%"}, {"measurement": "Percentage kinase inhibition YES/YES1", "setting": "YES/YES1", "value": 13, "unit": "%"}, {"measurement": "Percentage kinase inhibition c-MER", "setting": "c-MER", "value": 6, "unit": "%"}, {"measurement": "Percentage kinase inhibition PKCa", "setting": "PKCa", "value": 3, "unit": "%"}, {"measurement": "Percentage kinase inhibition AKT1", "setting": "AKT1", "value": 13, "unit": "%"}, {"measurement": "Percentage kinase inhibition FGFR1", "setting": "FGFR1", "value": 11, "unit": "%"}, {"measurement": "IC50", "setting": "MOLM14", "value": "102 ± 11", "unit": "nM"}]}, {"smiles": "Cc1ccc(C(=O)Nc2ccc(CN3CCN(C)CC3)c(C(F)(F)F)c2)cc1C#Cc1c(N)ncc2ccc(Cl)cc12", "note": "[HSN286]", "values": [{"measurement": "inhibition at 0.5 µM", "setting": "EGFR; read-out: Percentage kinase inhibition EGFR", "value": 44, "unit": "%"}, {"measurement": "inhibition at 0.5 µM", "setting": "FLT3; read-out: % inhibition of FLT3 activity", "value": 97, "unit": "%"}, {"measurement": "inhibition at 0.5 µM", "setting": "c-Met; read-out: Percentage kinase inhibition c-Met", "value": 20, "unit": "%"}, {"measurement": "inhibition at 0.5 µM", "setting": "PDGFRa; read-out: Percentage kinase inhibition PDGFRa", "value": 93, "unit": "%"}, {"measurement": "inhibition at 0.5 µM", "setting": "EPHA5; read-out: Percentage kinase inhibition EPHA5", "value": 96, "unit": "%"}, {"measurement": "inhibition at 0.5 µM", "setting": "KDR/VEGFR2; read-out: Percentage kinase inhibition KDR/VEGFR2", "value": 95, "unit": "%"}, {"measurement": "inhibition at 0.5 µM", "setting": "ALK; read-out: Percentage kinase inhibition ALK", "value": 0, "unit": "%"}, {"measurement": "inhibition at 0.5 µM", "setting": "EPHB2; read-out: Percentage kinase inhibition EPHB2", "value": 96, "unit": "%"}, {"measurement": "inhibition at 0.5 µM", "setting": "FGR; read-out: Percentage kinase inhibition FGR", "value": 100, "unit": "%"}, {"measurement": "inhibition at 0.5 µM", "setting": "TRKB; read-out: Percentage kinase inhibition TRKB", "value": 79, "unit": "%"}, {"measurement": "inhibition at 0.5 µM", "setting": "AXL; read-out: Percentage kinase inhibition AXL", "value": 3, "unit": "%"}, {"measurement": "inhibition at 0.5 µM", "setting": "TIE2/TEK; read-out: Percentage kinase inhibition TIE2/TEK", "value": 97, "unit": "%"}, {"measurement": "inhibition at 0.5 µM", "setting": "BRAF; read-out: Percentage kinase inhibition BRAF", "value": 97, "unit": "%"}, {"measurement": "inhibition at 0.5 µM", "setting": "ROS/ROS1; read-out: Percentage kinase inhibition ROS/ROS1", "value": 10, "unit": "%"}, {"measurement": "inhibition at 0.5 µM", "setting": "BTK; read-out: Percentage kinase inhibition BTK", "value": 41, "unit": "%"}, {"measurement": "inhibition at 0.5 µM", "setting": "FLT1/VEGFR1; read-out: Percentage kinase inhibition FLT1/VEGFR1", "value": 86, "unit": "%"}, {"measurement": "inhibition at 0.5 µM", "setting": "ERBB2/HER2; read-out: Percentage kinase inhibition ERBB2/HER2", "value": 25, "unit": "%"}, {"measurement": "inhibition at 0.5 µM", "setting": "FLT4/VEGFR3; read-out: Percentage kinase inhibition FLT4/VEGFR3", "value": 98, "unit": "%"}, {"measurement": "inhibition at 0.5 µM", "setting": "YES/YES1; read-out: Percentage kinase inhibition YES/YES1", "value": 100, "unit": "%"}, {"measurement": "inhibition at 0.5 µM", "setting": "c-MER; read-out: Percentage kinase inhibition c-MER", "value": 0, "unit": "%"}, {"measurement": "inhibition at 0.5 µM", "setting": "PKCa; read-out: Percentage kinase inhibition PKCa", "value": 5, "unit": "%"}, {"measurement": "inhibition at 0.5 µM", "setting": "AKT1; read-out: Percentage kinase inhibition AKT1", "value": 0, "unit": "%"}, {"measurement": "inhibition at 0.5 µM", "setting": "FGFR1; read-out: Percentage kinase inhibition FGFR1", "value": 98, "unit": "%"}, {"measurement": "IC50", "setting": "MOLM14", "value": "0.72 ± 0.02", "unit": "nM"}, {"measurement": "IC50", "setting": "MOLM14; Homo sapiens, MOLM-14", "value": 0.7, "unit": "nM"}]}]}
